In patent US12534452B2, “N-(1H-imidazol-2-yl)benzamide compound and pharmaceutical composition comprising the same as active ingredient” (KAINOS MEDICINE, INC., priority 2019, dated 2026):
pIC50: −log10 of the molar value.

The molecules below were run against IRAK4 (Homo sapiens (Human), UniProt Q9NWZ3) (assay: In vitro IRAK4 phosphorylation activity assay). Settings: [γ-33P]-ATP, myelin basic protein substrate, 40 minutes at room temperature; categories.
Format: biochemical
Outline: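 Radiometric filter-binding assay, no compound–kinase preincubation; 8 mM MOPS pH 7.0, 0.2 mM EDTA, 10 mM Mg acetate, 0.33 mg/mL myelin basic protein substrate, [γ-33P]-ATP. Reaction 40 min at room temperature, stopped with phosphoric acid, scintillation counting; IC50 reported in categories.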

Sequence of IRAK4 (Q9NWZ3 whole entry): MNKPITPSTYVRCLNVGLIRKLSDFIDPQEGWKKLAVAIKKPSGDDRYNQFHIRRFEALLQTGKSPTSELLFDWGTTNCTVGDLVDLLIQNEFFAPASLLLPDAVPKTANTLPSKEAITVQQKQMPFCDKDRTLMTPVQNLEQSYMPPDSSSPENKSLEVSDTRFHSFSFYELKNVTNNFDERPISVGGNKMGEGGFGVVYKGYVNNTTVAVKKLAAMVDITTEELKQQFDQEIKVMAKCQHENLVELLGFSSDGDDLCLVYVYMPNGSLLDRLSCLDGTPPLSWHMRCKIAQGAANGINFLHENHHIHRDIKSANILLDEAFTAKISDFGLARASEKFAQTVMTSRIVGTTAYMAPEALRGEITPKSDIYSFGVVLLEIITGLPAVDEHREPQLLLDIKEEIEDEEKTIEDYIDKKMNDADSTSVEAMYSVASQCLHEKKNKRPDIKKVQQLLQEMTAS

Row | pIC50 | Compound
1 | > 7.30 | Cn1cc(-c2cccc(C(=O)Nc3nc(CCCC(=O)N4CCCC(O)C4)cn3-c3ccccc3)c2)cn1 (stereo not drawn) [Example 178, N-(4-(4-(3-hydroxypiperidin-1-yl)-4-oxobutyl)-1-phenyl-1H-imidazol-2-yl)-3-(1-methyl-1H-pyrazol-4-yl)benzamide]
2 | > 7.30 | O=C(Nc1nc(CCCCO)cn1-c1ccccc1)c1cccc(-c2cn[nH]c2)c1 [Example 111, N-(4-(4-hydroxybutyl)-1-phenyl-1H-imidazol-2-yl)-3-(1H-pyrazol-4-yl)benzamide]
3 | < 7.00 | O=C(O)Cc1cn(-c2ccccc2)c(NC(=O)c2cccc(-c3cn[nH]c3)c2)n1 [Example 43, 2-(2-(3-(1H-pyrazol-4-yl)benzamido)-1-phenyl-1H-imidazol-4-yl)acetic acid]
4 | > 7.30 | CN(C(=O)CCCc1cn(-c2ccccc2)c(NC(=O)c2cccc(-c3cn[nH]c3)c2)n1)C1CC1 [Example 71, N-(4-(4-(cyclopropyl(methyl)amino)-4-oxobutyl)-1-phenyl-1H-imidazol-2-yl)-3-(1H-pyrazol-4-yl)benzamide]
5 | > 7.30 | COC[C@H]1CCCN1C(=O)CCCCc1cn(-c2ccccc2)c(NC(=O)c2cccc(-c3cn[nH]c3)c2)n1 [Example 87, (R)—N-(4-(5-(2-(methoxymethyl)pyrrolidin-1-yl)-5-oxopentyl)-1-phenyl-1H-imidazol-2-yl)-3-(1H-pyrazol-4-yl)benzamide]
6 | > 7.30 | O=C(O)CCCCc1cn(-c2ccccc2)c(NC(=O)c2cccc(-c3cn[nH]c3)c2)n1 [Example 78, 5-(2-(3-(1H-pyrazol-4-yl)benzamido)-1-phenyl-1H-imidazol-4-yl)pentanoic acid]
7 | 7.00 to 7.30 | O=C(Nc1nc(CCC(=O)N2CCCC[C@@H]2C(F)(F)F)cn1-c1ccccc1)c1cccc(-c2cn[nH]c2)c1 [Example 39, (R)—N-(4-(3-oxo-3-(2-(trifluoromethyl)piperidin-1-yl)propyl)-1-phenyl-1H-imidazol-2-yl)-3-(1H-pyrazol-4-yl)benzamide]
8 | > 7.30 | C[C@H]1CCCCN1C(=O)CCCCCc1cn(-c2ccccc2)c(NC(=O)c2cccc(-c3cn[nH]c3)c2)n1 [Example 95, (S)—N-(4-(6-(2-methylpiperidin-1-yl)-6-oxohexyl)-1-phenyl-1H-imidazol-2-yl)-3-(1H-pyrazol-4-yl)benzamide]
9 | 7.00 to 7.30 | COC[C@@H]1CCCN1NC(=O)CCc1cn(-c2ccccc2)c(NC(=O)c2cccc(-c3cn[nH]c3)c2)n1 [Example 13, (S)—N-(4-(3-((2-(methoxymethyl)pyrrolidin-1-yl)amino)-3-oxopropyl)-1-phenyl-1H-imidazol-2-yl)-3-(1H-pyrazol-4-yl)benzamide]
10 | > 7.30 | O=C(Nc1nc(CCCCCC(=O)N2CCCCC2)cn1-c1ccccc1)c1cccc(-c2ccc3[nH]nnc3c2)c1 [Example 242, 3-(1H-benzo[d][1,2,3]triazol-5-yl)-N-(4-(6-oxo-6-(piperidin-1-yl)hexyl)-1-phenyl-1H-imidazol-2-yl)benzamide]
11 | > 7.30 | CN1CCN(C(=O)CCCCCc2cn(-c3ccccc3)c(NC(=O)c3cccc(-c4ccc5[nH]ncc5c4)c3)n2)CC1 [Example 239, 3-(1H-indazol-5-yl)-N-(4-(6-(4-methylpiperazin-1-yl)-6-oxohexyl)-1-phenyl-1H-imidazol-2-yl)benzamide]
12 | > 7.30 | Cn1cc(-c2cccc(C(=O)Nc3nc(CCCCCC(=O)NC4CC4)cn3-c3ccccc3)c2)cn1 [Example 199, N-(4-(6-(cyclopropylamino)-6-oxohexyl)-1-phenyl-1H-imidazol-2-yl)-3-(1-methyl-1H-pyrazol-4-yl)benzamide]
13 | > 7.30 | O=C(Nc1nc(CCCCCN2CCSCC2)cn1-c1ccccc1)c1cccc(-c2cn[nH]c2)c1 [Example 120, N-(1-phenyl-4-(5-thiomorpholinopentyl)-1H-imidazol-2-yl)-3-(1H-pyrazol-4-yl)benzamide]
14 | 7.00 to 7.30 | COC[C@H]1CCCN1NC(=O)Cc1cn(-c2ccccc2)c(NC(=O)c2cccc(-c3cn[nH]c3)c2)n1 [Example 45, (R)—N-(4-(2-((2-(methoxymethyl)pyrrolidin-1-yl)amino)-2-oxoethyl)-1-phenyl-1H-imidazol-2-yl)-3-(1H-pyrazol-4-yl)benzamide]
15 | > 7.30 | Cn1cc(-c2cccc(C(=O)Nc3nc(CCCCCCNC(=O)C4CC4)cn3-c3ccccc3)c2)cn1 [Example 228, N-(4-(6-(cyclopropanecarboxamido)hexyl)-1-phenyl-1H-imidazol-2-yl)-3-(1-methyl-1H-pyrazol-4-yl)benzamide]
16 | > 7.30 | O=C(Nc1nc(CCCCCN2CCOCC2)cn1-c1ccccc1)c1cccc(-c2cn[nH]c2)c1 [Example 119, N-(4-(5-morpholinopentyl)-1-phenyl-1H-imidazol-2-yl)-3-(1H-pyrazol-4-yl)benzamide]
17 | > 7.30 | O=C(CCCc1cn(-c2ccccc2)c(NC(=O)c2cccc(-c3cn[nH]c3)c2)n1)NC1CCC1 [Example 69, N-(4-(4-(cyclobutylamino)-4-oxobutyl)-1-phenyl-1H-imidazol-2-yl)-3-(1H-pyrazol-4-yl)benzamide]

The remaining lines, values behind:

Row | Compound | pIC50
18 | Cn1cc(-c2cccc(C(=O)Nc3nc(CCCC(=O)N4CCC(C#N)CC4)cn3-c3ccccc3)c2)cn1 [Example 168, N-(4-(4-(4-cyanopiperidin-1-yl)-4-oxobutyl)-1-phenyl-1H-imidazol-2-yl)-3-(1-methyl-TH-pyrazol-4-yl)benzamide] | > 7.30
19 | O=C(Nc1nc(CCCCCCNC(=O)C2CC2)cn1-c1ccccc1)c1cccc(-c2ccc3[nH]ncc3c2)c1 [Example 262, N-(4-(6-(cyclopropanecarboxamido)hexyl)-1-phenyl-1H-imidazol-2-yl)-3-(1H-indazol-5-yl)benzamide] | > 7.30
20 | CN1CCN(NC(=O)CCCc2cn(-c3ccccc3)c(NC(=O)c3cccc(-c4cnn(C)c4)c3)n2)CC1 [Example 153, 3-(1-methyl-1H-pyrazol-4-yl)-N-(4-(4-((4-methylpiperazin-1-yl)amino)-4-oxobutyl)-1-phenyl-1H-imidazol-2-yl)benzamide] | 7.00 to 7.30
21 | O=C(CCCc1cn(-c2ccccc2)c(NC(=O)c2cccc(-c3cn[nH]c3)c2)n1)Nc1ccccc1 [Example 52, N-(4-(4-oxo-4-(phenylamino)butyl)-1-phenyl-1H-imidazol-2-yl)-3-(1H-pyrazol-4-yl)benzamide] | > 7.30
22 | O=C(CCc1cn(-c2ccccc2)c(NC(=O)c2cccc(-c3cn[nH]c3)c2)n1)Nn1cnnc1 [Example 21, N-(4-(3-((4H-1,2,4-triazol-4-yl)amino)-3-oxopropyl)-1-phenyl-1H-imidazol-2-yl)-3-(1H-pyrazol-4-yl)benzamide] | 7.00 to 7.30
23 | CN1CCN(CCCNC(=O)CCCc2cn(-c3ccccc3)c(NC(=O)c3cccc(-c4cnn(C)c4)c3)n2)CC1 [Example 186, 3-(1-methyl-1H-pyrazol-4-yl)-N-(4-(4-((3-(4-methylpiperazin-1-yl)propyl)amino)-4-oxobutyl)-1-phenyl-1H-imidazol-2-yl)benzamide] | 7.00 to 7.30
24 | Cn1cc(-c2cccc(C(=O)Nc3nc(CCCCN4CCCCC4)cn3-c3ccccc3)c2)cn1 [Example 219, 3-(1-methyl-1H-pyrazol-4-yl)-N-(1-phenyl-4-(4-(piperidin-1-yl)butyl)-1H-imidazol-2-yl)benzamide] | > 7.30
25 | Nc1n[nH]cc1-c1cccc(C(=O)Nc2nc(CCC(=O)Nc3ccccc3)cn2-c2ccccc2)c1 [Example 2, 3-(3-amino-1H-pyrazol-4-yl)-N-(4-(3-oxo-3-(phenylamino)propyl)-1-phenyl-1H-imidazol-2-yl)benzamide] | < 7.00
26 | CN1CCN(C(=O)CCCc2cn(-c3ccccc3)c(NC(=O)c3cccc(-c4ccc5ncsc5c4)c3)n2)CC1 [Example 280, 3-(benzo[d]thiazol-6-yl)-N-(4-(4-(4-methylpiperazin-1-yl)-4-oxobutyl)-1-phenyl-1H-imidazol-2-yl)benzamide] | > 7.30
27 | O=C(CCc1cn(-c2ccccc2)c(NC(=O)c2cccc(-c3cn[nH]c3)c2)n1)Nc1ccc(F)cc1 [Example 10, N-(4-(3-((4-fluorophenyl)amino)-3-oxopropyl)-1-phenyl-1H-imidazol-2-yl)-3-(1H-pyrazol-4-yl)benzamide] | 7.00 to 7.30
28 | CN1CCN(C(=O)CCCc2cn(-c3ccccc3)c(NC(=O)c3cccc(-c4cn[nH]c4F)c3)n2)CC1 [Example 230, 3-(5-fluoro-1H-pyrazol-4-yl)-N-(4-(4-(4-methylpiperazin-1-yl)-4-oxobutyl)-1-phenyl-1H-imidazol-2-yl)benzamide] | > 7.30
29 | CCOC(C)(C)n1cc(-c2cccc(C(=O)Nc3nc(CCCC(=O)NC4CC4)cn3-c3ccccc3)c2)cn1 [Example 73, N-(4-(4-(cyclopropylamino)-4-oxobutyl)-1-phenyl-1H-imidazol-2-yl)-3-(1-(2-ethoxypropan-2-yl)-1H-pyrazol-4-yl)benzamide] | 7.00 to 7.30
30 | O=C(Nc1nc(CCCC(=O)N2CCCCC2)cn1-c1ccccc1)c1cccc(-c2cn[nH]c2F)c1 [Example 231, 3-(5-fluoro-1H-pyrazol-4-yl)-N-(4-(4-oxo-4-(piperidin-1-yl)butyl)-1-phenyl-1H-imidazol-2-yl)benzamide] | > 7.30
31 | Cn1cc(-c2cccc(C(=O)Nc3nc(CCCC(N)=O)cn3-c3ccccc3)c2)cn1 [Example 189, N-(4-(4-amino-4-oxobutyl)-1-phenyl-1H-imidazol-2-yl)-3-(1-methyl-1H-pyrazol-4-yl)benzamide] | > 7.30
32 | Cn1cc(-c2cccc(C(=O)Nc3nc(CCCC(=O)N4CCN(Cc5ccc(OC(F)(F)F)cc5)CC4)cn3-c3ccccc3)c2)cn1 [Example 173, 3-(1-methyl-1H-pyrazol-4-yl)-N-(4-(4-oxo-4-(4-(4-(trifluoromethoxy)benzyl)piperazin-1-yl)butyl)-1-phenyl-1H-imidazol-2-yl)benzamide] | 7.00 to 7.30
33 | Cn1cc(-c2cccc(C(=O)Nc3nc(CCCC(=O)N4CCCC(F)(F)C4)cn3-c3ccccc3)c2)cn1 [Example 175, N-(4-(4-(3,3-difluoropiperidin-1-yl)-4-oxobutyl)-1-phenyl-1H-imidazol-2-yl)-3-(1-methyl-1H-pyrazol-4-yl)benzamide] | > 7.30
